# Laboratory results published in ChEMBL document CHEMBL1123324, “Basically substituted ellipticine analogues as potential antitumor agents” (1986).
# Calls of active or inactive are those of the source. The calls are words filed in the database; no cut-off is given here.
# Tests used:
# [1] = system: L1210; test: Inhibitory effect against L1210 leukemia in tissue culture; Inactive; type: functional, cell-based; settings: Mus musculus
# [2] = system: HCT-8; test: Inhibitory effect against HCT8 Human colon adenocarcinoma; type: functional; settings: read-out: ID50 (the source's name)
# [3] = system: L1210; test: Inhibitory effect against L1210 leukemia in tissue culture; type: functional; settings: Mus musculus, read-out: ID50 (the source's name)
# [4] = system: Nucleic Acid; test: Concentration at which the fluorescence of an ethidium-DNA complex was reduced by 50%; type: nucleic-acid assay
# [5] = system: HCT-8; test: Inhibitory effect against HCT8 Human colon adenocarcinoma; inactive; type: functional, cell-based
Compound,ID50 [1],IC50 [2] [nM],IC50 [3] [nM],C50 [4] [nM],ID50 [5]
CCN(CC)C(=O)Cn1c2ccccc2c2c(C)c3cnccc3c(C)c21,inactive,,,,
Cc1c2cnccc2c(C)c2c1c1ccccc1n2CCCN(C)C,,390,110,,
Cc1c2ccncc2c(C)c2c1[nH]c1ccccc12 [ELLIPTECINE],,260,100,1040,
CCN(CC)CC[n+]1ccc2c(C)c3[nH]c4ccccc4c3c(C)c2c1,,500,41,159,
Cc1c2cnccc2c(C)c2c1c1ccccc1n2CCN1CCOCC1,,100,320,440,
CCN(CC)CCn1c2ccccc2c2c(C)c3cnccc3c(C)c21,,80,190,106,
Cc1c2cnccc2c(C)c2c1c1ccccc1n2CCN1CCCCC1,,82,170,122,
Cc1c2cnccc2c(C)c2c1c1ccccc1n2C,,,430,454,
Cc1c2cc[n+](C)cc2c(C)c2c1[nH]c1ccccc12,,,600,,inactive
